Measured values reported in PubChem BioAssay AID1963862 (Molecular Pharmacology Branch, DTP, NCI, 2024).

Tested on: KRAS patient-derived spheroids with HUVEC/MSC, viability
Test: Anticancer human tumor 941728-121-R-J1-PDC patient-derived lung adenocarcinoma cell line growth inhibition [KRAS2]
Settings: for IC50: curve of first compound; for viability, T/C: stronger effect = lower value; active means viability on the fitted dose curve at most 10% of control; inactive means the rest
Description: Multicellular complex tumor spheroid response to RAS pathway inhibitors in combination with a targeted agents in patient-derived cell lines with oncogenic KRAS variants from multiple cancer types
A high-throughput screen of multi-cell type tumor spheroids was designed to identify active combinations of targeted small molecules and KRAS pathway inhibitors. Complex spheroids include a stromal component modeled by human endothelial cells (HUVEC) and fibroblasts modeled by human mesenchymal stem cells (MSCs). The concentration ranges selected for each drug and investigational agent were based upon clinically achievable concentrations if the clinical Cmax of the agent was known.
Compounds. The drugs and investigational agents: BI-3406 (NSC825286), BAY-293 (NSC824723), batoprotafib (TNO155; NSC825523), sotorasib (AMG 510; NSC818433), MRTX1257 (NSC819558), elimusertib (BAY 1895344; NSC800525), molibresib (GSK525762; NSC774829), temuterkib (LY3214996; NSC803410), venetoclax (NSC766270), alisertib (NSC759677), olaparib (NSC753686), talazoparib (NSC767125), erdafitinib (NSC781556), ipatasertib (NSC767898), cabozantinib (NSC761068), nintedanib (NSC756659), abemaciclib (NSC768073), docetaxel (NSC628503), trametinib (NSC758246), and sapanisertib (NSC764658) were obtained from the National Cancer Institute (NCI) Developmental Therapeutics Program Chemical Repository. The FDA-approved anticancer drug set is available from the Developmental Therapeutics Program. […] The stock solutions were prepared in dimethyl sulfoxide (DMSO, Sigma-Aldrich, St. Louis, MO, cat. D2650) at 800-fold the tested concentration and stored at -70 degrees C prior to their use. All drugs and investigational agents were tested over a range starting from a high concentration at or near the clinical Cmax and decreasing in half-log increments. If the clinical Cmax for an agent had not been determined, the highest concentration tested was 10 microM.
Cell Culture. All cells were maintained in an incubator at 37 degrees C and 5% CO2 with 95% humidity. The PDC lines were cultured according to standard operating procedures established by the NCI PDMR (https://pdmr.cancer.gov/sops/default.htm). Briefly, all PDCs were thawed and cultured in Matrigel-coated flasks prepared with a working solution of 1X Ham's F-12 nutrient mix, without supplementation (Invitrogen, Waltham, MA, cat. 11765054), 100 U/mL penicillin-streptomycin (Invitrogen, cat. 15140122), and 2.5% Matrigel (Corning Inc., Corning, NY, cat. 354248) for the first three passages. All PDCs were cultured in complete DMEM/F-12 media containing advanced DMEM/F-12 (Invitrogen, cat. 12634028), 4.9% defined fetal bovine serum, heat inactivated (HyClone Laboratories Inc., Logan, UT, cat. SH30070.03HI), 389 ng/mL hydrocortisone (Sigma-Aldrich, cat. H4001), 9.7 ng/mL human EGF recombinant protein (Invitrogen, cat. PHG0313), 23.4 microg/mL adenine (Sigma-Aldrich, cat. A2786), 97.3 U/mL penicillin-streptomycin (Invitrogen, cat. 15140122), 1.9 mM L-glutamine (Invitrogen, cat. 25030081), and 9.7 microM Y-27632 dihydrochloride (Tocris Bioscience, Bristol, United Kingdom, cat. 1254). The PDCs were cultured in complete DMEM/F12 media without 9.7 microM Y-27632 dihydrochloride for at least two passages prior to the screen. The established cell line HOP-62 was cultured in RPMI 1640 medium, HEPES (Invitrogen, cat. 22400105) with 10% defined fetal bovine serum (HyClone Laboratories Inc., cat. SH30070.03) and 2 mM L-glutamine (Invitrogen, cat. 25030081). The pooled donor HUVEC were cultured in endothelial cell growth medium 2 (PromoCell, Heidelberg, Germany, cat. C-22011) and the hMSC were cultured in mesenchymal stem cell growth medium 2 (PromoCell, cat. C-28009). For all experiments, HUVEC and hMSC were used at passages </=5, while the malignant cell lines were used at passages </=15. […]

[1] = second compound 0.1 µM, first compound 0.0316 µM
[2] = second compound 0.1 µM, first compound 0.1 µM
[3] = second compound 0.1 µM, first compound 0.316 µM
[4] = second compound 0.1 µM, first compound 1 µM
[5] = second compound 0.1 µM, first compound 3.16 µM
[6] = second compound 0.1 µM, first compound 10 µM
[7] = second compound 0.316 µM, first compound 0.0316 µM
[8] = second compound 0.316 µM, first compound 0.1 µM
[9] = second compound 0.316 µM, first compound 0.316 µM
[10] = second compound 0.316 µM, first compound 1 µM
[11] = second compound 0.316 µM, first compound 3.16 µM
[12] = second compound 0.316 µM, first compound 10 µM
[13] = second compound 1 µM, first compound 0.0316 µM
[14] = second compound 1 µM, first compound 0.1 µM
[15] = second compound 1 µM, first compound 0.316 µM
[16] = second compound 1 µM, first compound 1 µM
[17] = second compound 1 µM, first compound 3.16 µM
[18] = second compound 1 µM, first compound 10 µM
[19] = second compound 3.16 µM, first compound 0.0316 µM
[20] = second compound 3.16 µM, first compound 0.1 µM
[21] = second compound 3.16 µM, first compound 0.316 µM
[22] = second compound 3.16 µM, first compound 1 µM
[23] = second compound 3.16 µM, first compound 3.16 µM
[24] = second compound 3.16 µM, first compound 10 µM
[25] = second compound 10 µM, first compound 0.0316 µM
[26] = second compound 10 µM, first compound 0.1 µM
[27] = second compound 10 µM, first compound 0.316 µM
[28] = second compound 10 µM, first compound 1 µM
[29] = second compound 10 µM, first compound 3.16 µM
[30] = second compound 10 µM, first compound 10 µM
[31] = second compound 0.1 µM, first compound 0.00316 µM
[32] = second compound 0.1 µM, first compound 0.01 µM
[33] = second compound 0.316 µM, first compound 0.00316 µM
[34] = second compound 0.316 µM, first compound 0.01 µM
[35] = second compound 1 µM, first compound 0.00316 µM
[36] = second compound 1 µM, first compound 0.01 µM
[37] = second compound 3.16 µM, first compound 0.00316 µM
[38] = second compound 3.16 µM, first compound 0.01 µM
[39] = second compound 10 µM, first compound 0.00316 µM
[40] = second compound 10 µM, first compound 0.01 µM
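Further: spheroids exposed to agents for seven days before readout.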

CC(C)NCC(C(=O)N1CCN(c2ncnc3c2C(C)CC3O)CC1)c1ccc(Cl)cc1 (stereo not given) + C=CC(=O)N1CCN(c2nc(=O)n(-c3c(C)ccnc3C(C)C)c3nc(-c4c(O)cccc4F)c(F)cc23)C(C)C1
< 31.6 nM: IC50 (second compound 0.1 µM) | IC50 (second compound 0.316 µM) | IC50 (second compound 1 µM) | IC50 (second compound 3.16 µM) | IC50 (second compound 10 µM)
inactive: viability, T/C [1] 19.7% | viability, T/C [2] 20.1% | viability, T/C [3] 19.6% | viability, T/C [4] 15.3% | viability, T/C [7] 24.7% | viability, T/C [8] 19.5% | viability, T/C [9] 20% | viability, T/C [10] 15.2% | viability, T/C [13] 22.6% | viability, T/C [14] 22.4% | viability, T/C [15] 13.9% | viability, T/C [16] 16% | viability, T/C [17] 12% | viability, T/C [19] 24.1% | viability, T/C [20] 25.8% | viability, T/C [21] 20.3% | viability, T/C [22] 16% | viability, T/C [23] 10.6% | viability, T/C [25] 25.9% | viability, T/C [26] 21.5% | viability, T/C [27] 18.6% | viability, T/C [28] 14.9%
active: viability, T/C [5] 9.91% | viability, T/C [6] 4.14% | viability, T/C [11] 9.83% | viability, T/C [12] 4.08% | viability, T/C [18] 5.09% | viability, T/C [24] 4.7% | viability, T/C [29] 6.4% | viability, T/C [30] 4.57%

CC1(C)CCC(CN2CCN(c3ccc(C(=O)NS(=O)(=O)c4ccc(NCC5CCOCC5)c([N+](=O)[O-])c4)c(Oc4cnc5[nH]ccc5c4)c3)CC2)=C(c2ccc(Cl)cc2)C1 + C=CC(=O)N1CCN(c2nc(=O)n(-c3c(C)ccnc3C(C)C)c3nc(-c4c(O)cccc4F)c(F)cc23)C(C)C1
inactive: viability, T/C [1] 20.2% | viability, T/C [2] 17.6% | viability, T/C [3] 17.8% | viability, T/C [4] 17.4% | viability, T/C [7] 18.6% | viability, T/C [8] 16.1% | viability, T/C [9] 16.4% | viability, T/C [10] 16.3% | viability, T/C [13] 20.8% | viability, T/C [14] 19.7% | viability, T/C [15] 29.4% | viability, T/C [16] 17% | viability, T/C [17] 13.2% | viability, T/C [19] 19.3% | viability, T/C [20] 16.4% | viability, T/C [21] 22.5% | viability, T/C [22] 18.2% | viability, T/C [23] 15.2% | viability, T/C [25] 25.3% | viability, T/C [26] 24.8% | viability, T/C [27] 25.7% | viability, T/C [28] 22.4% | viability, T/C [29] 8.54%
active: viability, T/C [5] 7.67% | viability, T/C [6] 2.7% | viability, T/C [11] 9.65% | viability, T/C [12] 4.02% | viability, T/C [18] 4.29% | viability, T/C [24] 4.62% | viability, T/C [30] 8.81%
< 31.6 nM: IC50 (second compound 0.1 µM) | IC50 (second compound 0.316 µM) | IC50 (second compound 1 µM) | IC50 (second compound 3.16 µM) | IC50 (second compound 10 µM)

CCN1CCN(Cc2ccc(Nc3ncc(F)c(-c4cc(F)c5nc(C)n(C(C)C)c5c4)n3)nc2)CC1 + C=CC(=O)N1CCN(c2nc(=O)n(-c3c(C)ccnc3C(C)C)c3nc(-c4c(O)cccc4F)c(F)cc23)C(C)C1
< 3.16 nM: IC50 (second compound 0.1 µM) | IC50 (second compound 0.316 µM) | IC50 (second compound 1 µM) | IC50 (second compound 3.16 µM) | IC50 (second compound 10 µM)
inactive: viability, T/C [31] 17.4% | viability, T/C [32] 18.3% | viability, T/C [1] 16.5% | viability, T/C [2] 15.9% | viability, T/C [3] 15.1% | viability, T/C [4] 18.5% | viability, T/C [33] 19.1% | viability, T/C [34] 18.1% | viability, T/C [7] 17.1% | viability, T/C [8] 16.8% | viability, T/C [9] 14.7% | viability, T/C [10] 15.9% | viability, T/C [35] 22.2% | viability, T/C [36] 22.2% | viability, T/C [13] 19.5% | viability, T/C [14] 17.1% | viability, T/C [15] 17.2% | viability, T/C [16] 19.8% | viability, T/C [37] 22.7% | viability, T/C [38] 24.2% | viability, T/C [19] 19.6% | viability, T/C [20] 18.9% | viability, T/C [21] 21.9% | viability, T/C [22] 19.2% | viability, T/C [39] 27.8% | viability, T/C [40] 29.9% | viability, T/C [25] 25% | viability, T/C [26] 29.8% | viability, T/C [27] 27.9% | viability, T/C [28] 16.3%

Cn1ncnc1[C@H]1c2n[nH]c(=O)c3cc(F)cc(c23)N[C@@H]1c1ccc(F)cc1 + C=CC(=O)N1CCN(c2nc(=O)n(-c3c(C)ccnc3C(C)C)c3nc(-c4c(O)cccc4F)c(F)cc23)C(C)C1
< 0.316 nM: IC50 (second compound 0.1 µM) | IC50 (second compound 0.316 µM) | IC50 (second compound 1 µM) | IC50 (second compound 3.16 µM) | IC50 (second compound 10 µM)
inactive: viability, T/C (second compound 0.1 µM, first compound 0.000316 µM) 14.7% | viability, T/C (second compound 0.1 µM, first compound 0.001 µM) 15.4% | viability, T/C [31] 13.9% | viability, T/C [32] 13.6% | viability, T/C [1] 13.5% | viability, T/C [2] 13.9% | viability, T/C (second compound 0.316 µM, first compound 0.000316 µM) 17.4% | viability, T/C (second compound 0.316 µM, first compound 0.001 µM) 14.9% | viability, T/C [33] 15.3% | viability, T/C [34] 14.8% | viability, T/C [7] 14.1% | viability, T/C [8] 14.1% | viability, T/C (second compound 1 µM, first compound 0.000316 µM) 16% | viability, T/C (second compound 1 µM, first compound 0.001 µM) 15.5% | viability, T/C [35] 17.6% | viability, T/C [36] 15.9% | viability, T/C [13] 15.9% | viability, T/C [14] 15.2% | viability, T/C (second compound 3.16 µM, first compound 0.000316 µM) 15.8% | viability, T/C (second compound 3.16 µM, first compound 0.001 µM) 18.3% | viability, T/C [37] 15.4% | viability, T/C [38] 17.4% | viability, T/C [19] 13.6% | viability, T/C [20] 14.9% | viability, T/C (second compound 10 µM, first compound 0.000316 µM) 17.9% | viability, T/C (second compound 10 µM, first compound 0.001 µM) 20.1% | viability, T/C [39] 17.3% | viability, T/C [40] 17.3% | viability, T/C [25] 18.1% | viability, T/C [26] 16.7%
